Measured values as given in a melting point compilation (Tetko et al.; mined from patent text by program, amines drawn as free bases though some values may be those of a salt).

| SMILES | melting point [°C] |
| --- | --- |
| Cn1c(CO)c(-c2ccc(F)cc2)c2ccccc21 | 99 to 104 |
| CC(C)Oc1ccc([N+](=O)[O-])cc1O | 139 |
| S=C(Cc1ccc2ccccc2c1)N1CCCCC1 | 89 to 91 |
| COc1ccc(S(=O)(=O)c2ccc(OC)c3ccccc23)cc1 | 160 to 162 |
| CCOP(=O)(OCC)C(C)(C)NC(=O)c1cccc(NC(=O)c2cccc([N+](=O)[O-])c2)c1 | 120 to 121 |
| CC(N1CCN(c2ncn(Cc3ccc(C(C)(C)C)cc3)n2)CC1)C(O)(Cn1cncn1)c1ccc(F)cc1F (stereo not given) | 84 to 86 |
| O=C(Nc1cccc(CN2CCCCC2)c1)C1=Cc2cc(-c3ccccc3)ccc2CC1 | 152 to 153 |
| CCCN1C(=O)C2(CC)CC(c3ccc([N+](=O)[O-])cc3)(C2)C1=O | 121 to 122 |
| O=P1(c2ccc(Oc3ccccc3)cc2)c2ccccc2CN1c1ccccc1 (stereo not given) | 207 to 208 |
| NC(C=C(Cc1ccccc1)CP(=O)(O)O)C(=O)O (stereo not given) | 196 to 198 |
| O=c1cc(-c2ccncc2)nc2n1CC(O)CN2 (stereo not given) | 305 to 307 |
| CCC(=O)NC(C)OC (stereo not given) | 29 to 32 |
| O=C(O)Cc1ccc(CNC(=O)C2Cc3ccccc3N2S(=O)(=O)c2ccc(-c3ccc(F)cc3Cl)cc2)cc1 (stereo not given) | 119 |
| NS(=O)(=O)c1ccc(-c2[nH]c3ccc(F)cc3c2-c2ccccc2)cc1 | 302 to 304 |
| COCOc1ccc(Cl)cc1-c1cc(-c2cccc([N+](=O)[O-])c2)c(C#N)c(N)n1 | 192 to 193 |
| Cc1ccc(C(=O)NC(CCCCCl)C(=O)O)cc1 (stereo not given) | 177 to 181 |
| COc1cccc(/C=C/C(=O)/C=C/C(=O)O)c1 | 158 to 160 |
| COc1ccc(SC(C(=O)NO)C(C)C)cc1 (stereo not given) | 119 |
| C=CCc1c(Br)cc(C(C)(C)c2cc(Br)c(CC=C)c(Br)c2)cc1Br | 114 |
| COC(=O)c1nc(N)ccc1O | 170 to 173 |
| Cc1cccc2nc(NC(=O)c3ccc(C(C)(C)C(=O)O)cc3)cn12 | 282 to 283 |
| CCCCCCCCCCCCSc1n[nH]c(-c2ccc(C(C)(C)C)cc2)n1 | 87 to 92 |
| N#Cc1cccc2c1CC(=NN)c1ccccc1S2 | 175 to 177 |
| N#CSc1cc(Cl)c(Cl)c2sc(NC(=O)Nc3ccc(Br)cc3)nc12 | 243 to 245 |

| SMILES | melting point [°C] |
| --- | --- |
| Cc1ccc2c(c1)c(C1=C(Br)C(=O)N(C)C1=O)cn2C | 107 to 110 |
| COC(=O)C(Oc1ccc(NC(C)=O)cc1)c1ccc(Oc2ccc(Cl)cc2)cc1 (stereo not given) | 152 to 157 |
| C1=CC2(c3ccccc3CP(Cc3ccccc3)Cc3ccccc3)OC2(CP(Cc2ccccc2)Cc2ccccc2)C2OC12 (stereo not given) | 203 to 205 |
| COc1cccc(CN2C(=O)C3CCCC3N(C(=O)CN3C(=O)c4ccccc4C3=O)c3ccccc32)c1 (stereo not given) | 193 to 194 |
| CCCc1c(OCc2cccc(CC(=O)O)c2)ccc(C(C)=O)c1O | 156 to 158 |
| O=C(Nc1ccc(-n2nc(C(F)(F)F)cc2C(F)(F)F)cc1)c1cc(F)c(F)c(F)c1 | 158 to 159 |
| CC(=O)c1cc2c(c(O)c1O)OC(C)(C)CC2C (stereo not given) | 153 to 154 |
| N#Cc1ccc(N2c3cc(Cl)ccc3C(=O)OC23CCNCC3)cc1 | 183 to 185 |
| C[Si](C)(C)c1ccc2cc3c(cc2c1)C(=O)c1ccccc1C3=O | 168 to 170 |
| COc1ccccc1NCN1C(=O)CSC1=O | 88.5 to 91 |
| Cc1c(C)n(CC2CC2)c2c(OCc3ccccc3)nncc12 | 123 to 124 |
| CCCCCCCSC[C@H](N[C@@H](C)C(=O)N1CCC[C@H]1C(=O)O)C(=O)O | 75 to 83 |
| O=C(Nc1ccc(F)cc1)NC1CC1 | 205 |
| CS(=O)(=O)Nc1ccc(/C=C\COCCCCCCNCC(O)c2ccc(O)c(CO)c2)cc1 (stereo not given) | 113 to 116 |
| C=CCC(O)(C(=O)N[C@H]1CN2CCC1CC2)c1cccs1 (stereo not given in full) | 54.4 to 58.3 |
| NC(=O)c1cc(Cl)cc(-c2cccc3cc(Cc4cccc(C(F)(F)F)c4)sc23)c1 | 139 to 140 |
| COC(=O)C(C)[C@H]1CC[C@H]2[C@@H]3CCC4=CC(=O)CC[C@]4(C)[C@H]3CC[C@]12C (stereo not given in full) | 175 to 177 |
| Cc1ccc([N+](=O)[O-])cc1/C=C/c1nc(C(C)C)cs1 | 87 to 88 |
| O=C(Nn1c(=O)c(=O)[nH]c2cc(C(F)(F)F)c([N+](=O)[O-])cc21)C(F)(F)F | > 250 |
| CCC1=NC(=NOC(=O)NC)SC1(C)C | 98 to 100 |
| Oc1ccc(C2=C(c3ccc(OCCCCCSCCCC(F)(F)C(F)(F)F)cc3)c3ccc(O)cc3CCC2)cc1 | 157 to 158 |
| Cc1ccc(NC(=O)c2ccc(CN3CCN(C)CC3)c(C(F)(F)F)c2)cc1Nc1nc(-c2ccncc2)cs1 | 226 to 227 |
| O=C(Nc1cc(C(F)(F)F)cc(C(F)(F)F)c1)c1ccccc1O | 196 to 198 |
| Cn1cc(C2=C(c3cn(CCCNS(C)(=O)=O)c4ccccc34)C(=O)NC2=O)c2ccccc21 | 135 to 138 |

| SMILES | melting point [°C] |
| --- | --- |
| CCNC(=O)C1CCN(C(=O)c2cc(-c3ccccc3)c(=O)n3c2-c2sccc2CC3)CC1 | 134 to 135 |
| O=C(O)CCC(F)(F)C(F)(F)CCC(=O)O | 204 |
| c1csc(-c2nc3cc(COc4ccc(CCCCn5ccnc5)cc4)ccc3o2)c1 | 130 to 131 |
| COC(=O)C1CCC2C3CCC4CC(O)C(O)CC4(C)C3C(NCCC(C)C)CC12C (stereo not given) | 159 to 161 |
| CCOC(=O)NCc1cccc(-c2ccnc3c(C#N)cnn23)c1 | 140 to 142 |
| CC1(C)Oc2ccc3nc(C#N)ccc3c2C(NCCc2ccccc2)C1O (stereo not given) | 93 to 96 |
| COc1cc(Cc2cnc(N)nc2N)cc2c1OC(C)(C)C=C2c1cccc([N+](=O)[O-])c1 | 253 to 254 |
| CCN1C(=O)c2ccc(C(F)(F)F)cc2S(=O)(=O)c2ccccc21 | 145 to 146 |
| N#CNc1cc(F)ccc1-c1ccccc1 | 68 to 70 |
| Nc1nc(-c2cccnc2)c(Cl)s1 | 202 |
| O=C(O)C(Cc1ccccc1)Oc1ccc2cc(-c3cnc(Cc4ccccc4)o3)ccc2c1 (stereo not given) | 78 to 82 |
| COC(=O)C(C)(C)OCc1cc2cc(Cl)ccc2n1S(=O)(=O)c1ccc2c(c1)OCO2 | 90 to 92 |
| CCOC(=O)c1c(CCl)nc2ccc(Cl)cc2c1-c1ccc(Cl)cc1 | 140 to 141 |
| CCOC(=O)c1nn(-c2ccccc2Cl)c(=O)c(C#N)c1C | 93 to 95 |
| O=C(CN1CCN(c2ccc(CO)c(Cl)c2)CC1)c1cc2ccccc2o1 | 169 to 172 |
| FC(F)(F)C(F)(F)C(F)(F)COc1ccnc(CSc2nc3cscc3[nH]2)c1 | 117 |
| O=C(OCCCCCCc1ccc(OCc2ccc(Cl)cc2)cc1)c1cccnc1 | 66 to 67 |
| Nc1nc2c(s1)CCN(CC=Cc1ccc(Cl)cc1)CC2 | 145 to 150 |
| O=c1[nH]nc(-c2ccccc2Nc2cccc(C(F)(F)F)c2)s1 | 157 to 160 |
| CCCn1c(OCC2CC2(Cl)Cl)nc2sc(Cl)cc2c1=O (stereo not given) | 94 to 96 |
| Cc1ccc2c3c(ccc2n1)OC[C@H](CN1CCN(c2cccc4c2OCCO4)CC1)O3 | 154 to 155 |
| COc1cccc2c(C(F)(F)F)cc(N3CCNCC3)nc12 | 130 |
